Assay results as given in article PMC10648204, “Discovery of Novel Biphenyl Carboxylic Acid Derivatives as Potent URAT1 Inhibitors” (Molecules, 2023).

Legend:
URAT1 = settings: general statement in the introduction; cited from earlier work
human URAT1 = biological target: T1, human URAT1 (Homo sapiens, UniProt Q96S37); experiment: In vitro URAT1 inhibitory assay (14C-uric acid uptake in HEK293T cells expressing human URAT1); format: cell-based; settings: HEK293-URAT1 cells, 14C-labeled uric acid substrate; for inhibition at 10 µM: HEK-293T, 10 μM compound, mean of three measurements
T1 construct: expressed in transfected cells; host or cells: HEK293T cells (ATCC CRL-11268)
T1 sequence (Q96S37 1-553): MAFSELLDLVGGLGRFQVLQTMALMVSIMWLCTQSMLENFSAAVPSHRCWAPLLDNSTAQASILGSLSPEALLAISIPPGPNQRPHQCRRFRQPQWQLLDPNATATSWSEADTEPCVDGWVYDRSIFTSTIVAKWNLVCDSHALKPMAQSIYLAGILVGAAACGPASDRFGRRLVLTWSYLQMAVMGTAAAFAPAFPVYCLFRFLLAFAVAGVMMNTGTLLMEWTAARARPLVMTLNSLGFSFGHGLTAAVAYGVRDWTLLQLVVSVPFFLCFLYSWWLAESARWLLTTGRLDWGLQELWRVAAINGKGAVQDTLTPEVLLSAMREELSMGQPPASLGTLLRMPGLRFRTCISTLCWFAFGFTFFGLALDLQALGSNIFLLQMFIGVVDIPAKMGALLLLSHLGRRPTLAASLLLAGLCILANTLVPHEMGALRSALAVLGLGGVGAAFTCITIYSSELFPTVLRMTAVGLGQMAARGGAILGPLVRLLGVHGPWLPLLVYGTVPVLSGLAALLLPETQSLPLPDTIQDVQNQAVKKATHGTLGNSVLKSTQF
Procedure: All the target compounds were evaluated for their URAT1 inhibitory activities in HEK293-URAT1 cells using ^14C-labeled uric acid as the substrate. […] The SAR exploration on series A compounds mainly focused on the hydrophobic component. […] For series B compounds, the ortho-substituted biphenyl carboxylic acid was initially kept, and various aromatic components were incorporated (B1–B25). […] Different substituents were introduced onto the 4-pyridyl (B15–B21).
In Vitro URAT1 Inhibitory Assay. A transient expression system of human URAT1 in HEK293T cells was constructed to measure ^14C-uric acid transport. […] The cell cryovials were removed from liquid nitrogen storage, and immediately placed on dry ice prior to thawing. […] The cell suspension was transferred into a 15 mL centrifuge tube, and 10 mL complete medium (DMEM +10% FBS +500 μg/mL G418 +1% P/S) was added. After centrifugation at 1000 rpm for 5 min, the supernatant was discarded, and cell precipitation was resuspended in 5 mL complete medium and transferred to a T75 culture flask. […] The uptake assay test could be carried out after cell culture adherent to the well in the 96-well plate. Then, the cells were washed with 200 µL/well of pre-warmed Cl^- free HBSS buffer, and all buffer was removed at the last washing. 50 µL/well of Cl^- free HBSS Buffer containing Uric acid [8-^14C] (2.5 μCi/mL) and samples were added to the cells, and incubated for 8 min. Then, the cells were washed three times with Cl^- free HBSS Buffer and all buffer was removed at the last washing. 50 µL/well of lysis buffer (100 mM NaOH) was added to the lysate cells and stirred at 900 rpm for 5 min. 150 µL/well MicroScint™-40 cocktail was added and agitated at 900 rpm for 5 min. Finally, the 96-plate was counted in a MicroBeta2 (PerkinElmer). The data were analyzed and IC50 values was calculated with GraphPad Prism 6 software.

| melting point | IC50 (human URAT1) | inhibition at 10 µM (human URAT1) | Structure (SMILES) | IC50 (URAT1 inhibitor potency level, in words) (URAT1) |
| --- | --- | --- | --- | --- |
| – | – | – | CCc1oc2ccccc2c1C(=O)c1cc(Br)c(O)c(Br)c1 [Benz, benzbromarone] | submicromolar level |
| 188 to 190 °C | 1300 nM | 96% | O=C(NS(=O)(=O)c1ccc(Br)cc1)c1ccccc1-c1ccccc1-c1nc(-c2ccncc2Cl)no1 [Compound B27] | – |
| 288 to 289 °C | – | 29% | O=C(O)c1cccc(-c2ccccc2-c2nc(-c3ccncc3)no2)c1 [Compound B28] | – |
| 258 to 260 °C | – | 18% | O=C(O)c1ccc(-c2ccccc2-c2nc(-c3ccncc3)no2)cc1 [Compound B29] | – |
| 237 to 239 °C | – | 33% | O=C(O)c1ccccc1-c1ccccc1-c1nnc(-c2ccncc2)o1 [Compound B30] | – |
| – | – | – | O=C(O)CSc1nnc(Br)n1-c1ccc(C2CC2)c2ccccc12 [Lesinurad] | micromolar level |
